Experimental data taken from ChEMBL document CHEMBL1137763, “Cyclobutane-containing peptides: evaluation as novel metallocarboxypeptidase inhibitors and modelling of their mode of action” (Bioorg Med Chem, 2009).

Assays:
[1] = biological target: T1, Carboxypeptidase B (Homo sapiens, UniProt P15086); assay: Inhibition of human recombinant carboxypeptidase B expressed in Saccharomyces cerevisiae by microtiter plate method
T1 sequence (P15086 whole entry): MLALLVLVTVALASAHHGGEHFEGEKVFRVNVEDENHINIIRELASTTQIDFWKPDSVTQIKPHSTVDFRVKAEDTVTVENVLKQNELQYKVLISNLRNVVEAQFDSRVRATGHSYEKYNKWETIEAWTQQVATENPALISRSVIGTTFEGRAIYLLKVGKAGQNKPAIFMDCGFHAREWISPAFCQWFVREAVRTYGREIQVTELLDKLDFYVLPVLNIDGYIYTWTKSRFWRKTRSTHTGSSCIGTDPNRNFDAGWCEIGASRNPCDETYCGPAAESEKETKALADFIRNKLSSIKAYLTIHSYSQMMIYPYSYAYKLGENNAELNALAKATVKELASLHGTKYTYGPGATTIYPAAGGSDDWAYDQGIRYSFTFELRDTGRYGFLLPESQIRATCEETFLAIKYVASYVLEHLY

[2] = biological target: T2, Carboxypeptidase A1 (Bos taurus, UniProt P00730); assay: Inhibition of bovine pancreatic carboxypeptidase A by microtiter plate method
T2 sequence (P00730 whole entry): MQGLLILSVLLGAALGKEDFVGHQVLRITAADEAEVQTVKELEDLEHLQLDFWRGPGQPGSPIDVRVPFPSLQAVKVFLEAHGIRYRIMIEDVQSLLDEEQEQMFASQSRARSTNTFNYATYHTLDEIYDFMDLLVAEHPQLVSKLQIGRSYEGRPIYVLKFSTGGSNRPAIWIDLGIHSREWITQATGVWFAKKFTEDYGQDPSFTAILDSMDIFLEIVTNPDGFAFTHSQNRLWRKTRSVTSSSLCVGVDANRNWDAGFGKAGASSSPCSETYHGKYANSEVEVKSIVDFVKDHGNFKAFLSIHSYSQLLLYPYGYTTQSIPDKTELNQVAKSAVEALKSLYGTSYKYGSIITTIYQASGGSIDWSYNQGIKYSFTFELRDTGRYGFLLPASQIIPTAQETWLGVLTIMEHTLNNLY

Structure (SMILES) | Ki [1] [µM] | Ki [2] [µM]
COC(=O)[C@H]1CC[C@H]1NC(=O)[C@H]1CC[C@H]1NC(=O)OCc1ccccc1 | 70 | 67
COC(=O)CCCCNC(=O)[C@H]1CC[C@H]1NC(=O)OCc1ccccc1 | 410 | 72.5
COC(=O)CNC(=O)[C@@H]1CC[C@@H]1NC(=O)OCc1ccccc1 | 500 | 550
COC(=O)CCNC(=O)[C@@H]1CC[C@@H]1NC(=O)OCc1ccccc1 | 400 | 180
O=C(O)CCNC(=O)[C@@H]1CC[C@@H]1NC(=O)OCc1ccccc1 | 43 | 70
COC(=O)[C@@H]1CC[C@@H]1NC(=O)[C@@H]1CC[C@@H]1NC(=O)OCc1ccccc1 | 275 | 95
